# Assay results: patent US9388126B2, “Sigma receptor ligands and methods of modulating cellular protein homeostasis using same” (Drexel University, priority 2012, dated 2016)
# Columns and labels:
# Type in all cases: cell-based, human
# [1] = system: MDA-MB-468 and T47D breast adenocarcinoma cells; assay: Translational arrest immunoblot (P-S6K, P-4E-BP1); details: 10 μM, 16 hours
# Protocol: FIG. 57A is an image of an immunoblot illustrating MDA-MB-468 breast adenocarcinoma cells treated for 16 hours with 10 μM of JMS-51-58. FIG. 57B is an image of an immunoblot illustrating T47D breast adenocarcinoma cells treated for 16 hours with 10 μM of JMS-51-58. The levels of phosphothreonine 389-p70S6Kinase (P-S6K) and phosphoserine 65-4E-BP1 (P-4E-BP1) were evaluated by immunoblot. Decreased levels of both phosphoprotein levels indicated diminished protein synthesis.
# [2] = system: MDA-MB-468 cells; assay: Cell death by trypan blue exclusion; details: 10 μM with bortezomib 1, 10, 100 nM, 20 hours
# Protocol: Trypan blue exclusion and propidium iodide staining were used to quantify general cell death and the presence of apoptotic cell death was confirmed by immunoblot. The percentage of dead cells in a given population was determined by quantifying the number of trypan blue positive (dead) cells and dividing by the total number of trypan blue positive and negative cells.
# [3] = system: MDA-MB-231 breast adenocarcinoma cells; assay: Alamar blue proliferation assay with bortezomib; details: ~70 hours
# Protocol: FIG. 61, comprising FIGS. 61A-61B, is a set of graphs illustrating the finding that the novel Sigma1 ligand JMS-51-58 potentiated proteasome inhibitor mediated inhibition of tumor cell proliferation. In vitro cell proliferation was quantified by Alamar blue assay. The anti-proliferative effects of four drug concentrations of novel Sigma1 small molecule ligand JMS-51-58, were quantified after ˜70 hours of treatment of MDA-MB-231 breast adenocarcinoma cell cultures. […] Note the shift to the left of the dose-response curve (broken line). Data are representative of an experiment performed in triplicate.
# [4] = system: MDA-MB-231 and PC3 cells; assay: In vitro cell adhesion by Alamar blue assay; details: 16 hours in the presence of drug
# Protocol: In vitro cell adhesion was quantified by Alamar blue assay. MDA-MB-231 and PC3 cells were detached with 0.25% trypsin+2 mM EDTA and reseeded onto 96 well plates. At the time of cell seeding, IPAG (Sigma1 putative antagonist) was added at the indicated doses to wells containing adenocarcinoma cells. The suspended cells were allowed to sediment and adhere for 16 hours in the presence of drug. Subsequently, the culture medium was removed by aspiration, each well washed once with 0.2 ml PBS (without calcium and magnesium), and Alamar blue assay was performed to quantify the number of live cells adhered to the surface of each well. FIG. 63A is a graph illustrating cell adherence in MDA-MB-231 breast adenocarcinoma cells. FIG. 63B is a graph illustrating cell adherence in PC3 prostate adenocarcinoma cells. The same procedure was performed using the indicated concentrations of JMS-51-58. FIG. 63C is a graph illustrating cell adherence in MDA-MB-231 breast adenocarcinoma cells. FIG. 63D is a graph illustrating cell adherence in PC3 prostate adenocarcinoma cells. Standard deviation bars are shown.
# [5] = system: MDA-MB-468, T47D, MDA-MB-231 and PC3 cells; assay: Cell proliferation by Alamar blue assay, tumor cell lines; details: four drug concentrations, 40-70 hours of treatment
# Protocol: In vitro cell proliferation was quantified by Alamar blue assay. The anti-proliferative effects of four drug concentrations of novel Sigma1 small molecule ligand JMS-51-2nd-58 were quantified after 40-70 hours of treatment. Data are representative of an experiment formed in triplicate for each cell line. FIG. 60A is a graph illustrating cell death in MDA-MB-468 breast adenocarcinoma cell cultures. FIG. 60B is a graph illustrating cell death in T47D breast adenocarcinoma cell cultures. FIG. 60C is a graph illustrating cell death in MDA-MB-231 breast adenocarcinoma cell cultures. FIG. 60D is a graph illustrating cell death in PC3 prostate adenocarcinoma cell cultures.
# [6] = system: MDA-MB-468 and T47D breast adenocarcinoma cells; assay: ER stress response immunoblot (P-p38MAPK, GRP78/BiP); details: 10 μM, 16 hours
# Protocol: FIG. 58A is an image of an immunoblot of MDA-MB-468 breast adenocarcinoma cells treated for 16 hours with 10 μM JMS-51-58. FIG. 58B is an image of an immunoblot of T47D breast adenocarcinoma cells treated for 16 hours with 10 μM JMS-51-58. The levels of phospho-Thr 180/Tyr 182 p38MAPK (P-p38MAPK) and GRP78/BiP and were evaluated by immunoblot.
# [7] = system: MDA-MB-468 (GFP-LC3), MDA-MB-468 and T47D breast adenocarcinoma cells; assay: Autophagy markers (GFP-LC3II, GFP-LC3 punctae, endogenous LC3II); details: 10 μM, ~16 hours
# Protocol: FIG. 56A is an immunoblot illustrating MDA-MB-468 breast adenocarcinoma cells stably transfected with GFP-LC3 (green fluorescent protein tagged light chain 3, an autophagy marker) treated for ˜16 hours with 10 μM IPAG or 10 μM 1-3 JMS-51-58. The appearance of GFP-LC3II was an indication of autophagosome formation. FIG. 56B is an image illustrating formation of autophagosomes (GFP-LC3 punctae) in MDA468 (GFP-LC3) treated with 10 μM JMS-51-58 as in FIG. 56A. The arrow points to an example of GFP-LC3-positive autophagosomes. The white bar at the bottom of the image indicates 100 μm. FIG. 56C is an image of an immunoblot illustrating the appearance of endogenous LC3II, a marker of autophagosome formation, in MDA-MB-468 breast adenocarcinoma cells treated for 16 hours with 10 μM of JMS-51-58. FIG. 56D is an image of an immunoblot illustrating the appearance of endogenous LC3II, a marker of autophagosome formation, in T47D breast adenocarcinoma cells treated for 16 hours with 10 μM JMS-51-58.
# [8] = system: MDA-MB-468 and MDA-MB-231 breast adenocarcinoma cells; assay: Poly-ubiquitylated protein immunoblot, breast adenocarcinoma cells; details: 10 μM, 16 hours, MDA-MB-468 and MDA-MB-231
# Protocol: FIG. 34A is an image of an immunoblot of MDA-MB-468 breast adenocarcinoma cells treated with 10 μM Sigma1 antagonist (IPAG) for the indicated times, up to 24 hours. Total cell lysates were resolved by SDS-PAGE and immunoblotted with a poly-ubiquitin antibody P4D1. FIG. 34B is an image of an immunoblot of HepG2 hepatocellular carcinoma cells treated for 20 hours with 10 μM of indicated Sigma1 ligands.
# FIG. 59, comprising FIGS. 59A-59B, illustrates the finding that the novel Sigma1 ligand JMS-51-58 modulated the ubiquitin proteasome system. FIG. 59A is an image of an immunoblot evaluating the levels of poly-ubiquitylated proteins of MDA-MB-468 breast adenocarcinoma treated for 16 hours with 10 μM of JMS-51-58. FIG. 59B is an image of an immunoblot evaluating the levels of poly-ubiquitylated proteins of MDA-MB-231 breast adenocarcinoma cells treated for 16 hours with 10 μM of JMS-51-58. The levels of poly-ubiquitylated proteins were evaluated by immunoblot.
smiles,measurement,setting,value
"N=C(NCCCOc1ccc(F)cc1)Nc1ccc(I)cc1 [JMS-51-58, 1-(3-(4-fluorophenoxy)propyl)-3-(4-iodophenyl)guanidine]",translational arrest (decreased P-S6K and P-4E-BP1),[1],mediated translational arrest
same,potentiation of proteasome inhibitor (bortezomib) mediated cell death,[2],potentiated proteasome inhibitor mediated tumor cell death
same,cell proliferation and rates of cell death,[3]; 3 μM,did not alter cell proliferation or rates of cell death
same,potentiation of bortezomib (BTZ) inhibition of cell proliferation,[3]; sub-lethal dose (3 μM),potentiated the cell proliferation inhibiting effects of bortezomib
same,cell adhesion,[4],inhibited adhesion of metastatic breast and prostate adenocarcinoma cell lines
same,tumor cell proliferation,[5],inhibited tumor cell proliferation
same,ER stress response,[6],mediated ER stress response
same,induction of autophagy,[7],induced autophagy
same,levels of poly-ubiquitylated proteins,[8],increased ubiquitylated protein levels compared to the DMSO control
